From PMC7570852, “Ruthenium(II)/(III) DMSO-Based Complexes of 2-Aminophenyl Benzimidazole with In Vitro and In Vivo Anticancer Activity” (Molecules, 2020)

Key:
[1] = test system: Ehrlich ascites carcinoma (EAC); assay: EAC mouse model: abdominal size and peritoneal angiogenesis; format: in vivo, mice; conditions: for mean abdominal circumference: EAC mice
Method: The mice were divided into the following eight groups (10 mice in each group): • Control group: Mice were intraperitoneally injected with a vehicle (2% DMSO + sterile saline) for 12 days. • I, II, and III control groups: Healthy normal mice were intraperitoneally injected with 6, 12, and 18 mg/kg of complex (2), respectively, for 12 days. • EAC group: Mice were intraperitoneally injected by a single dose of 2.5 × 10^6 viable Ehrlich ascites carcinoma (EAC) cells in PBS. In brief, EAC cells were withdrawn from the EAC mouse’s intraperitoneal cavity, washed, and centrifuged three times with sterile saline. Then, the pellets were suspended in sterile PBS and counted by the trypan blue exclusion assay, which confirmed that the viability of the cells was 98%. • I, II, and III treated groups: Firstly, 30 healthy mice were intraperitoneally injected with a single dose of 2.5 × 10^6 viable EAC cells. After one day; the mice were divided into I, II, and III treated groups (10 mice each group), intraperitoneally injected with 6, 12, and 18 mg/kg Ru(III) complex, respectively, for 12 days.
The animals were monitored for EAC growth by measuring abdominal size. At the end of the experiment all animals were fasted overnight then sacrificed. Serum samples were collected to study the biological parameters such as liver and kidney function as well as antioxidant enzyme activity. Liver samples from each group were frozen immediately in liquid nitrogen for molecular analysis.

MCF7 cells = assay: DNA fragmentation (agarose gel), MCF7; format: cell-based, human; conditions: MCF7, 117.6 µg/mL, 4 h
Method: MCF7 and Caco2 cells were collected and genomic DNA was extracted using a Gene JET genomic DNA extraction kit following the manufacturer’s protocol (Thermo Scientific, #K0721). The extracted DNA samples were run on a 1.5% agarose gel at 50 V for 2 h and the fragment pattern was visualized by ethidium bromide staining under a UV transilluminator.

[2] = test system: caspase 3 gene expression; assay: Real-time qPCR of liver tissue, caspase 3; format: in vivo; conditions: liver tissue of EAC-bearing mice, vs untreated
Method: (§1) RNA was isolated from liver tissues using a RNeasy Mini kit. The integrity and purity of RNA were assessed by 1% agarose gel electrophoresis and nanodrop, respectively. The obtained RNA was reverse transcribed to yield cDNA using Quantiscript reverse transcriptase. Specific primers for Bax, caspase 3, and Bcl2 genes in addition to the housekeeping gene, β actin were designed by the Primer 3 web-based tool based on the published mice sequences (Table 5). Quantitative real-time PCR (qPCR) was performed using QuantiTect SYBR Green qPCR Master Mix in a StepOnePlus real-time PCR system and the melting curve condition and fold change calculation were done as previously described.

Cyclic voltammetry = format: physicochemical; conditions: 10^−3 M in CH2Cl2/DMSO, 0.1 M (Bu4N)PF6, scan rate 50 mVs^−1
Method: Elemental analyses (C, H, N) were performed by the Microanalysis unit in the Department of Chemistry at Simon Fraser University. Infrared spectra (FTIR) were performed on a JASCO 4100 FTIR spectrophotometer in the 4000–400 cm^−1 range using a KBr disc. NMR (^1H and ^13C) spectra were recorded in DMSO-d6 solvent using a Bruker 400 MHz instrument. The 2D NMR analysis (^1H–^1H COSY) was performed on a Jeol 500 MHz NMR, at Mansoura University. ESI/APCI HRMS data were acquired on a Thermo Scientific Exactive Plus Orbitrap mass spectrometer. Electronic spectra (in DMSO, 200–900 nm) were measured on a JASCO 630 V spectrophotometer. Emission spectra of the complexes were measured on a Jenway model 6285 spectrofluorimeter for excitation and emission spectra, 200–700 nm. The magnetic susceptibility of the complexes was measured on a Johnson Matthey magnetic susceptibility balance. […] A microplate reader (StatFax-2100, Awareness Technology, Inc., Palm City, FA, USA), Attune flow cytometer (Applied Biosystems, Foster City, CA, USA), Quawell nanodrop Q5000 (San Jose, CA, USA), StepOnePlus real time PCR system (Applied Biosystems, Foster City, CA, USA), and CO2 incubator (NuAire In-Vitro Cell, Plymouth, MN, USA) were used in biological studies.

Caco2 cells = assay: Cell-cycle analysis by flow cytometry (PI), Caco2; format: cell-based, human; conditions: Caco2, 117.6 μg/mL, 24 h
Method: The Ru(III) complex (2) (117.6 μg/mL) was added to MCF7 and Caco2 cells at a confluence of 70–80% and incubated for 24 h (in a CO2 incubator). The cells were then digested with warm trypsin-EDTA + warm PBS-EDTA (0.25%) (500 + 500 μL) with incubation for 10 min at 37 °C. The mixture was centrifuged (450 rpm) for 5 min, then the supernatant was removed. The mixture was washed twice in warm PBS and the cell pellet was re-suspended in 500 µl warm PBS, centrifuged and the supernatant decanted. A volume of 150 μL PBS + 350 μL ice-cold 70% ethanol was added and incubated at 4 °C for 1 h to fix the cells. To remove ethanol, the mixture was centrifuged at 350 rpm for 10 min and then the supernatant was removed. The mixture was washed twice in warm PBS and the cells were re-suspended in 500 μL of warm PBS, centrifuged, and the supernatant was removed. The cells were resuspended in 100 μL PBS and stored at 4 °C for up to four days. In darkness, the cells were stained with 100 µL of propidium iodide (PI) solution + 50 µL RNase A solution (100 µg/mL) and incubated in darkness for 30–60 min. The stained cells were read in an Attune flow cytometer (Applied Bio-system, Foster City, CA, USA).

Bax gene expression = assay: Real-time qPCR of liver tissue, Bax; format: in vivo; conditions: liver tissue of EAC-bearing mice, vs untreated
Method: as §1

SMILES: CS(C)=O.Nc1ccccc1-c1nc2ccccc2[nH]1.O.[Cl][Ru]([Cl])[Cl] [(2), [Ru(III)Cl3(DMSO)(Hapbim)]·H2O]
- peritoneal angiogenesis ([1]; EAC mice, 6, 12, 18 mg/kg treated groups vs EAC group): decreased in a dose-dependent manner
- mean abdominal circumference ([1]; I (6 mg/kg) i.p. for 12 days, untreated EAC 13.20 ± 0.03, control 7.06 ± 0.18): 9.6 ± 0.2 cm
- mean abdominal circumference ([1]; II (12 mg/kg) i.p. for 12 days): 7.30 ± 0.03 cm
- mean abdominal circumference ([1]; III (18 mg/kg) i.p. for 12 days): 7.10 ± 0.03 cm
- DNA fragmentation (MCF7 cells): distinct DNA laddering
- caspase 3 mRNA level [2]: significant increases
- E1/2 (Ru(II)/Ru(III) redox couple) (Cyclic voltammetry): −295 mV
- cells in G0/G1 phase (Caco2 cells): 18%
- cells in G2/M phase (Caco2 cells): 62%
- cells in S phase (Caco2 cells): 20%
- Bax mRNA level (Bax gene expression): significant increases
